Assays:
insulin receptor = test: Insulin assay: displacement of [125I] ligand from human placental membranes; format: binding; conditions: relative to human insulin = 100, human placental membrane protein, 24 hours at 4°C, from EC50 values of displacement curves
Experimental: (§1) Measurements of insulin and IGF-1 activities were accomplished in substantial accordance with the teaching of Gruppuso, et al. (1988) J. of Clin. Endocrin. and Metab. 67:194-197. Briefly, 30-50 µg of human placental membrane protein was incubated with approximately 10 femtomoles of [^125I] ligand in a final volume of 500 µl of 100 mM HEPES, pH 7.8, 120mM NaCl, 5mM KCl, 1.2mM MgSO4, 8mM glucose and 0.25% BSA for 24 hours at 4°C. Membranes were collected on glass fiber filters pre-treated with 0.1% polyethyleneimine by using a cell harvester (Skatron, Lier, Norway). Binding data were analyzed by fitting displacement curves to a four parameter model employing Prefit/Allfit® software for the determination of EC50 values.

IGF-1 receptor = test: IGF-1 assay: displacement of [125I] ligand from human placental membranes; format: binding; conditions: relative to IGF-1 = 100, human placental membrane protein, 24 hours at 4°C, from EC50 values of displacement curves
Experimental: as §1

Q: Which “%Insulin Activity” value (insulin receptor) does the source give for “bCa: single-chain human insulin B-chain and A-chain joined by Bridging Peptide GLY-TYR-GLY-SER-SER-SER-ARG-ARG-ALA-PRO-GLN-THR; made by solid-phase synthesis” here?
A: 34%

Q: And the “%IGF-1 Activity” value (IGF-1 receptor)?
A: 23%
